Tests used:
Test in all cases: relative viability (nuclei count vs DMSO), 5 days (fraction); higher = more cells survive
VE-821 + Phenformin = compound: CS(=O)(=O)c1ccc(-c2cnc(N)c(C(=O)Nc3ccccc3)n2)cc1 [VE-821] + N=C(N)NC(=N)NCCc1ccccc1 [Phenformin] (partner 250 µM)
How it was run: (§1)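 Lung cancer cell lines, seeded in 1536-well plates, were treated the following day by pin tool with a single drug or with five library-drug doses (not always all listed) in √10 steps on top of a fixed anchor-drug dose. Cells were fixed and nuclei stained in one step after 5 days, and nuclei were counted. Relative viability is the nuclei count for treated wells divided by that for vehicle wells, reported as medians of duplicate plates.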

Vismodegib + Luminespib = compound: CS(=O)(=O)c1ccc(C(=O)Nc2ccc(Cl)c(-c3ccccn3)c2)c(Cl)c1 [Vismodegib] + CCNC(=O)c1noc(-c2cc(C(C)C)c(O)cc2O)c1-c1ccc(CN2CCOCC2)cc1 [Luminespib] (partner 0.01 µM)
How it was run: as §1

Vismodegib + Crizotinib = compound: CS(=O)(=O)c1ccc(C(=O)Nc2ccc(Cl)c(-c3ccccn3)c2)c(Cl)c1 [Vismodegib] + C[C@@H](Oc1cc(-c2cnn(C3CCNCC3)c2)cnc1N)c1c(Cl)ccc(F)c1Cl [Crizotinib] (partner 1 µM)
How it was run: as §1

Ruxolitinib + Lapatinib = compound: N#CC[C@H](C1CCCC1)n1cc(-c2ncnc3[nH]ccc23)cn1 [Ruxolitinib] + CS(=O)(=O)CCNCc1ccc(-c2ccc3ncnc(Nc4ccc(OCc5cccc(F)c5)c(Cl)c4)c3c2)o1 [Lapatinib] (partner 2 µM)
How it was run: as §1

Cell Line | relative viability (VE-821 + Phenformin; first compound 0.08 µM) | relative viability (VE-821 + Phenformin; first compound 0.253 µM) | relative viability (VE-821 + Phenformin; first compound 0.8 µM) | relative viability (VE-821 + Phenformin; first compound 2.53 µM) | relative viability (VE-821 + Phenformin; first compound 8 µM) | relative viability (Vismodegib + Luminespib; first compound 0.08 µM) | relative viability (Vismodegib + Luminespib; first compound 0.253 µM) | relative viability (Vismodegib + Luminespib; first compound 0.8 µM) | relative viability (Vismodegib + Luminespib; first compound 2.53 µM) | relative viability (Vismodegib + Luminespib; first compound 8 µM) | relative viability (Vismodegib + Crizotinib; first compound 0.08 µM) | relative viability (Vismodegib + Crizotinib; first compound 0.253 µM) | relative viability (Vismodegib + Crizotinib; first compound 0.8 µM) | relative viability (Vismodegib + Crizotinib; first compound 2.53 µM) | relative viability (Vismodegib + Crizotinib; first compound 8 µM) | relative viability (Ruxolitinib + Lapatinib; first compound 0.08 µM) | relative viability (Ruxolitinib + Lapatinib; first compound 0.253 µM) | relative viability (Ruxolitinib + Lapatinib; first compound 0.8 µM) | relative viability (Ruxolitinib + Lapatinib; first compound 2.53 µM) | relative viability (Ruxolitinib + Lapatinib; first compound 8 µM)
201T | 0.476 | 0.415 | 0.468 | 0.431 | 0.364 | 1.02 | 1 | 1.07 | 1.11 | 0.968 | 0.954 | 1.06 | 0.997 | 1.02 | 1.01 | 1.1 | 1.14 | 1.11 | 1.28 | 1.26
A549 | 0.182 | 0.214 | 0.157 | 0.13 | 0.103 |  |  |  |  |  | 0.711 | 0.759 | 0.796 | 0.672 | 0.686 | 0.998 | 1.03 | 1.04 | 0.918 | 0.636
A-427 | 0.341 | 0.319 | 0.293 | 0.365 | 0.225 | 0.912 | 0.831 | 0.856 | 0.876 | 0.824 | 0.833 | 0.838 | 0.927 | 0.857 | 0.882 | 0.875 | 1.14 | 1.09 | 1.11 | 0.967
ABC-1 | 0.308 | 0.26 | 0.203 | 0.244 | 0.211 | 0.577 | 0.381 | 0.551 | 0.672 | 0.405 | 0.6 | 0.827 | 1.12 | 0.993 | 0.958 | 1.19 | 1.19 | 1.4 | 1.11 | 1.17
BEN | 0.284 | 0.281 | 0.283 | 0.257 | 0.249 | 0.363 | 0.293 | 0.475 | 0.244 | 0.326 | 0.779 | 0.927 | 0.807 | 0.934 | 0.986 | 0.798 | 0.76 | 0.766 | 0.767 | 0.777
CAL-12T | 0.585 | 0.526 | 0.611 | 0.523 | 0.396 | 0.531 | 0.366 | 0.436 | 0.503 | 0.575 | 0.693 | 0.761 | 0.685 | 0.773 | 0.807 |  | 0.643 | 0.88 | 0.697 | 0.623
COR-L23 | 0.444 | 0.438 | 0.472 | 0.502 | 0.427 | 0.672 | 0.779 | 0.586 | 0.675 | 0.75 | 0.593 | 0.589 | 0.603 | 0.591 | 0.816 | 1 | 0.9 | 1.16 | 0.744 | 0.823
COR-L 105 | 0.519 | 0.325 | 0.472 | 0.387 | 0.343 | 0.657 | 0.785 | 0.92 | 0.973 | 0.773 | 0.63 | 0.728 | 0.751 | 0.773 | 0.715 | 0.394 | 0.341 | 0.454 | 0.461 | 0.333
Calu-6 |  |  |  |  |  |  |  |  |  |  | 0.705 | 0.754 | 0.757 | 0.814 | 0.886 | 1.09 | 1.09 | 1.17 | 1 | 0.647
ChaGo-K-1 | 0.454 | 0.459 | 0.536 | 0.496 | 0.427 | 0.565 | 0.622 | 0.598 | 0.525 | 0.516 | 1.19 | 1.09 | 1.13 | 1.06 | 1.22 |  |  |  |  | 
EBC-1 |  |  |  |  |  |  |  |  |  |  | 0.173 | 0.201 | 0.168 | 0.182 | 0.202 | 0.21 |  | 0.216 | 0.232 | 0.195
EKVX | 0.241 | 0.223 | 0.204 | 0.221 | 0.226 | 0.749 | 0.797 | 0.929 | 0.864 | 0.896 | 0.849 | 0.895 | 0.898 | 1.09 | 0.952 | 0.224 | 0.194 | 0.231 | 0.207 | 0.188
EMC-BAC-2 | 0.569 | 0.475 | 0.577 | 0.528 | 0.463 | 1.14 | 1.07 | 1.22 | 1.12 | 1.21 | 0.768 | 0.797 | 0.72 | 0.73 | 0.796 | 0.945 | 0.786 | 0.974 | 0.901 | 0.713
EPLC-272H | 0.322 | 0.29 | 0.326 | 0.383 | 0.26 | 0.298 | 0.224 | 0.263 | 0.235 | 0.442 | 0.899 | 0.849 | 0.856 | 0.867 | 1.04 | 0.164 | 1.08 | 0.953 | 1 | 0.671
H3255 | 0.377 | 0.338 | 0.42 | 0.344 | 0.383 | 0.798 | 0.996 | 0.799 | 0.818 | 0.857 | 0.812 | 0.737 | 0.965 | 0.913 | 0.597 |  | 0.236 | 0.249 | 0.28 | 0.226
HARA | 0.497 | 0.459 | 0.469 | 0.484 | 0.356 | 0.699 | 0.843 | 0.888 | 0.655 | 0.779 | 0.956 | 0.965 | 1.03 | 1.05 | 1.06 | 0.766 | 0.631 | 0.76 | 0.7 | 0.675
HCC-15 | 0.625 | 0.473 | 0.506 | 0.526 | 0.438 | 0.17 | 0.267 | 0.254 | 0.508 | 0.29 | 0.782 | 0.859 | 0.889 | 0.879 | 0.83 | 0.859 | 0.905 | 0.869 | 0.786 | 0.779
HCC-44 | 0.261 | 0.15 | 0.263 | 0.198 | 0.266 | 1 | 0.966 | 1 | 0.979 | 1.05 | 0.782 | 0.721 | 0.829 | 0.763 | 0.783 | 1.06 | 1.07 | 1.04 | 1.01 | 0.783

— the supplement of paper PMC10307832
